Measured values from patent US8637252B2, “Methods and compositions for determining altered susceptibility of HIV-1 to anti-HIV drugs” (Monogram Biosciences, Inc., priority 2011, dated 2014).

Tested on: HIV-1 (PRRT-RHIN segment of patient sample 62)
Experiment: phenotypic drug resistance test, PRRT-RHIN amplicon of sample 62
Format: cell-based
Excerpt: Patient-derived segment(s) corresponding to the entire pol gene, encoding HIV protease, reverse transcriptase (including RNAse H), and integrase (hereinafter “POL”), the portion of pol encoding amino acids 1-305 of reverse transcriptase (hereinafter “PR-RT”), the portion of pol encoding amino acids 319-440 of reverse transcriptase (including RNAse H), and integrase (hereinafter “RHIN”), were amplified by the reverse transcription-polymerase chain reaction method (RT-PCR) using viral RNA isolated from viral particles present in the plasma or serum of HIV-infected individuals as described below. The portion of pol encoding protease, amino acids 1-531 of reverse transcriptase (including RNase H) (hereinafter “PRRT-RH”), or the portion of pol encoding protease, reverse transcriptase (including RNAse H) and integrase (hereinafter “PRRT-RHIN”), were assembled from amplicons described above by standard recombinant DNA techniques involving a KpnI restriction site at amino acid 400 or a Pin A1 site at amino acid 315.
Drug resistance tests performed with test vectors were carried out using packaging host and target host cells consisting of the human embryonic kidney cell line 293.
Resistance tests were carried out with the RTV libraries by using viral particles comprising the RTV libraries to infect a host cell in which the expression of the indicator gene is measured. The amount of indicator gene (luciferase) activity detected in infected cells is used as a direct measure of “infectivity,” i.e., the ability of the virus to complete a single round of replication. Thus, drug resistance or sensitivity can be determined by plotting the amount of luciferase activity produced by patient derived viruses in the presence of varying concentrations of the antiviral drug. By identifying the concentration of drug at which luciferase activity is half-maximum, the IC50 of the virus from which patient-derived segment(s) were obtained for the antiretroviral agent can be determined. […]

First: CC(C)Nc1cccnc1N1CCN(C(=O)c2cc3cc(NS(C)(=O)=O)ccc3[nH]2)CC1 [DLV, delavirdine]
Second: Cc1ccnc2c1NC(=O)c1cccnc1N2C1CC1 [NVP, nevirapine]
The “Fold Change in IC50, PRRT-RHIN amplicon” value of the first is lower: 140.00 fold for the first, 400.00 fold for the second.

O=C1Nc2ccc(Cl)cc2[C@@](C#CC2CC2)(C(F)(F)F)O1 [EFV, efavirenz] was tested, and the “Fold Change in IC50, PRRT-RHIN amplicon” value was 202.00 fold.
